Common to all, as to assay: biochemical
What all share (design): Eurofins KinaseProfiler full panel at Km ATP, residual kinase activity (%) relative to DMSO

Assay [1] deals with T1, LATS1(h) (Homo sapiens, UniProt O95835).
T1 sequence (O95835 1-1130): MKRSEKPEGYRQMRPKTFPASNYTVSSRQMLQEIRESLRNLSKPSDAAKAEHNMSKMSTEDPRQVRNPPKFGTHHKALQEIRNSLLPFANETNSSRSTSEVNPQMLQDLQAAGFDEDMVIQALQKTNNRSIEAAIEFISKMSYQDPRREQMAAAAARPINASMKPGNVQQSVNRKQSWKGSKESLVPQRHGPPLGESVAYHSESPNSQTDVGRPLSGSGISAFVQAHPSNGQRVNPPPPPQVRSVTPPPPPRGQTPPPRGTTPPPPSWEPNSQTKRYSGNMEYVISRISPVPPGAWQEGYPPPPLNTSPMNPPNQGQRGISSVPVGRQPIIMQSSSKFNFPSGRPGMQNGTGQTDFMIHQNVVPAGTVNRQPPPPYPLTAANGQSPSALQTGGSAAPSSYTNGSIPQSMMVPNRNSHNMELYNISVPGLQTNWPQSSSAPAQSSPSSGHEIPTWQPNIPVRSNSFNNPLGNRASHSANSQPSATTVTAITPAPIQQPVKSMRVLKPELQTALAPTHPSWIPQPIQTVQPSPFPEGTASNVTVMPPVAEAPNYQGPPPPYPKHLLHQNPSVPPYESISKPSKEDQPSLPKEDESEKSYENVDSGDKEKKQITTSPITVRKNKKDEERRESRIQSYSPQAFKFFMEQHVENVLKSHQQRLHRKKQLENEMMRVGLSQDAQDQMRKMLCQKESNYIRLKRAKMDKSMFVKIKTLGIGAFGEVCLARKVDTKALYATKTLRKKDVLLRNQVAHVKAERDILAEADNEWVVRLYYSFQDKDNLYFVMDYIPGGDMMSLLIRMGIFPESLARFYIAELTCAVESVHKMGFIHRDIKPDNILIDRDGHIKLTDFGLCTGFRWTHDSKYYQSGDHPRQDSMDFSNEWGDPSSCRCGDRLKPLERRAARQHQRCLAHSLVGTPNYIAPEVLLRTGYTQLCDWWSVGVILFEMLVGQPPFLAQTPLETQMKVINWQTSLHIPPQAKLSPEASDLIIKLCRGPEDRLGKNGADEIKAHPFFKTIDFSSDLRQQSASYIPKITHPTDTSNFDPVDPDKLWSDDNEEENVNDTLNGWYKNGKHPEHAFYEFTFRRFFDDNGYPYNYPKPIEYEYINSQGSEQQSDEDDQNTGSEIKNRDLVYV
The essentials: (§1)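 Radiometric kinase activity assays were run with ATP at Km and compounds at 10 µM, and remaining activity (%) was reported. A separate competitive binding screen measured DNA-tagged kinase displaced from immobilized active-site ligands by qPCR, giving percent kinase still bound at 10 µM compound in DMSO.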

Assay [2] addresses EphA7(h) (Homo sapiens, UniProt Q15375). A digest of the protocol: as §1
For assay [3], the target named is T2, Rsk3(h) (Homo sapiens, UniProt Q15349).
T2 construct: gene RPS6KA2
The essentials: as §1

For assay [4], the target named is T3, TrkC(h) (Homo sapiens, UniProt Q16288).
T3 construct: gene NTRK3
T3 sequence (Q16288 whole entry): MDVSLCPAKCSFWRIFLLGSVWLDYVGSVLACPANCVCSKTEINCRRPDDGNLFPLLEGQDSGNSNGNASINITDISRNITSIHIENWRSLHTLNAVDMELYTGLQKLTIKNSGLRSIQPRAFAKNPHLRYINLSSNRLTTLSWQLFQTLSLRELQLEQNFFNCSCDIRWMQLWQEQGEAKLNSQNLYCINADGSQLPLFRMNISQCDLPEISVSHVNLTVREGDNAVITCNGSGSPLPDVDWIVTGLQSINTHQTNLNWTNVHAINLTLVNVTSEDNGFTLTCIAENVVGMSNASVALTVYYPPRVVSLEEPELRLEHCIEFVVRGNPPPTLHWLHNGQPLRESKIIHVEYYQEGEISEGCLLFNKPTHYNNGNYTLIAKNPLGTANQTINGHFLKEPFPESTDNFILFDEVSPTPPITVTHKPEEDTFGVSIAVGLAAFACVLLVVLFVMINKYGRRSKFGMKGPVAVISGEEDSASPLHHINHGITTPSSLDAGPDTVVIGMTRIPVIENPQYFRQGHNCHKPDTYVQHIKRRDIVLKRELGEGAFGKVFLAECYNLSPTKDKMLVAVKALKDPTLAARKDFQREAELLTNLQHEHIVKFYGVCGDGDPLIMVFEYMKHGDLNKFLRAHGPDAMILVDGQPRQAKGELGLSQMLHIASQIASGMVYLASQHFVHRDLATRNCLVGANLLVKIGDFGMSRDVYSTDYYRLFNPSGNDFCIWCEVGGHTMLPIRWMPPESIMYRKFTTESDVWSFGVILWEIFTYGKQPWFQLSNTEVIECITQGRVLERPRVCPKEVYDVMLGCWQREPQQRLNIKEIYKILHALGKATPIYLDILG
A digest of the protocol: as §1

Assay [5] has as its target T4, PI3 Kinase (p110d/p85a)(h) (Homo sapiens, UniProt O00329).
T4 construct: gene PIK3CD
A digest of the protocol: as §1

In assay [6] the target is T5, ICK(h) (Homo sapiens, UniProt Q9UPZ9).
T5 construct: gene CILK1
T5 sequence (Q9UPZ9 1-632): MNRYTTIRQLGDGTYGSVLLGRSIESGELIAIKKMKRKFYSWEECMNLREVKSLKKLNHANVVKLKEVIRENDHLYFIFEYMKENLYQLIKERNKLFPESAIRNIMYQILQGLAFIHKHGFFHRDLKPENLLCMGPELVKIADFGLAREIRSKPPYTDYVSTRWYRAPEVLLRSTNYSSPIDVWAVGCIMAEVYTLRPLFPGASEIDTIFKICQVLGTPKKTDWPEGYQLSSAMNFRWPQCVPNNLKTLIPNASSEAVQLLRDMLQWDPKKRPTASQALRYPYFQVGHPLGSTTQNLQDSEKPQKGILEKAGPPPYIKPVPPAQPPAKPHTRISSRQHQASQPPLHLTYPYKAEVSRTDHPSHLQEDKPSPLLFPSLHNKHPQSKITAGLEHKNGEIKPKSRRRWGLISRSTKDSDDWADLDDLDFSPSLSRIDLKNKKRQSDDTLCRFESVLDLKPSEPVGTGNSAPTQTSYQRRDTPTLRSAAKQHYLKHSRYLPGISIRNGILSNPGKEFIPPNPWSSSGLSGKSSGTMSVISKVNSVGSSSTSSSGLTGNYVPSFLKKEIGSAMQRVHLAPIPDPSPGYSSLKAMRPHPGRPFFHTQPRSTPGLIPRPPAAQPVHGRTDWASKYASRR
A digest of the protocol:
as §1

Assay [7] addresses T6, PKCθ(h) (Homo sapiens, UniProt Q04759).
T6 construct: gene PRKCQ
The essentials: as §1

The target in assay [8] is STK33(h) (Homo sapiens, UniProt Q9BYT3). The essentials: as §1
Sequence of STK33(h) (Q9BYT3 whole entry): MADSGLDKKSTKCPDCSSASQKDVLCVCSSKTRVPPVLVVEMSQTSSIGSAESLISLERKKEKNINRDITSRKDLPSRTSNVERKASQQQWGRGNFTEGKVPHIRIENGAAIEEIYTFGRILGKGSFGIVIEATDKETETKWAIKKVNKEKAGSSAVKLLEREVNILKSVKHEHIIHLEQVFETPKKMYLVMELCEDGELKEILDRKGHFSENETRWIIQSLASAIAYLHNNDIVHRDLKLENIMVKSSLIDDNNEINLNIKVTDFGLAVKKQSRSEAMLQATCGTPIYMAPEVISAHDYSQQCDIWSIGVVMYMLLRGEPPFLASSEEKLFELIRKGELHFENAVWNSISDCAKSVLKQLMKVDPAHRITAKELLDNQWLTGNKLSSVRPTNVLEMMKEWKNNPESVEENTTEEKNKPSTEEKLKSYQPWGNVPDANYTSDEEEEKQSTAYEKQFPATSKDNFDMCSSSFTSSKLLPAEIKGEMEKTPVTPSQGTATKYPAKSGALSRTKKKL
Setting [9] is: read-out: Residual activity (%) Spautin-1 5aa.
The mark [10] stands for this setting: read-out: Residual activity (%) 5as.
Setting [11] is: read-out: Residual activity (%) 5at.
[12] abbreviates: read-out: Residual activity (%) 5ay.

This passage reports remaining activity results from PMC7827406, “Structure–Activity Relationship (SAR) Study of Spautin-1 to Entail the Discovery of Novel NEK4 Inhibitors” (International Journal of Molecular Sciences, 2021).

Like-named read-outs stand apart in the source and are kept apart here.

T6 sequence (Q04759 whole entry): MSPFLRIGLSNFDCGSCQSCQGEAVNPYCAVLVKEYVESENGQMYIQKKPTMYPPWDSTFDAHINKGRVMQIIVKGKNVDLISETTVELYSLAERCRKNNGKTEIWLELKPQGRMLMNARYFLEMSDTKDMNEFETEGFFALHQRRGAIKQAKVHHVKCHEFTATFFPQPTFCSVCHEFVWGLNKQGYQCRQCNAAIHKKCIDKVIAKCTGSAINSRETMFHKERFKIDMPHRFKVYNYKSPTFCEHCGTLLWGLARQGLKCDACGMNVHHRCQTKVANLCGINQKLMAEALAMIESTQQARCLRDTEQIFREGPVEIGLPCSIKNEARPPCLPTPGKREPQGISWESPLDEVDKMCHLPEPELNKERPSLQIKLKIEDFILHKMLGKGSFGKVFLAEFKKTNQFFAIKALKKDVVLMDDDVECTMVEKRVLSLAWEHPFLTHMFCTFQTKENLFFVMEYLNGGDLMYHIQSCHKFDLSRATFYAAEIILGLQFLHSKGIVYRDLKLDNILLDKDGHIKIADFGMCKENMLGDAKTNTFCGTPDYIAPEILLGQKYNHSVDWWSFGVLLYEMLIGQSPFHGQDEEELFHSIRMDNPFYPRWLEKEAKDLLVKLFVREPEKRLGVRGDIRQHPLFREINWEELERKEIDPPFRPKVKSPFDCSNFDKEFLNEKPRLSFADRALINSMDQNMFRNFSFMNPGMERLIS
Sequence of EphA7(h) (Q15375 whole entry): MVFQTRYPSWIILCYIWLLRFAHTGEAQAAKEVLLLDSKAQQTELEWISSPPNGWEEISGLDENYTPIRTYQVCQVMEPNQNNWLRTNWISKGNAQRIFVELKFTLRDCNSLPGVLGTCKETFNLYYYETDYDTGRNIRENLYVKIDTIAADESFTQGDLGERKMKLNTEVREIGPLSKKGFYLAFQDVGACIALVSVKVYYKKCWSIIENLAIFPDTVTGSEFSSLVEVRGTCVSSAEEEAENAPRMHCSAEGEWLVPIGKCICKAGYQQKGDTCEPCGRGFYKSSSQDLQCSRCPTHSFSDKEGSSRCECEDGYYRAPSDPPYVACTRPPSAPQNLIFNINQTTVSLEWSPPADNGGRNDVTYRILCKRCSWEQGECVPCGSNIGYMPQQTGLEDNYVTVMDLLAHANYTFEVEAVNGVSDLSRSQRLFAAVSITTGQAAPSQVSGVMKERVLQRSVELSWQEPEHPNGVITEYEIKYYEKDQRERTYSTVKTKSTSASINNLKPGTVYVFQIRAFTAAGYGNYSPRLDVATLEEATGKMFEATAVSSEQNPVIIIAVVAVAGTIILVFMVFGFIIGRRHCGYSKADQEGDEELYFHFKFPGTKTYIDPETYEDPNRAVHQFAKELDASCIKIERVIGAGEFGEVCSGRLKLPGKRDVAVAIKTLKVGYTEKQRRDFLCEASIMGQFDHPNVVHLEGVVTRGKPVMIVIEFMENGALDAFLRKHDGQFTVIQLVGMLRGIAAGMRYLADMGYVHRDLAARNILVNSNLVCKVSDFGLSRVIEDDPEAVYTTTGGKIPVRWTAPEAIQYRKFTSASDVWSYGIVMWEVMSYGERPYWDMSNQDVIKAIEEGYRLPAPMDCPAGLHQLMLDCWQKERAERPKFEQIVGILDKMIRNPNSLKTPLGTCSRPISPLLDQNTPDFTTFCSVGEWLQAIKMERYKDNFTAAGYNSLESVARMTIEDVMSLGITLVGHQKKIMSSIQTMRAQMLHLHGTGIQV
T4 sequence (O00329 whole entry): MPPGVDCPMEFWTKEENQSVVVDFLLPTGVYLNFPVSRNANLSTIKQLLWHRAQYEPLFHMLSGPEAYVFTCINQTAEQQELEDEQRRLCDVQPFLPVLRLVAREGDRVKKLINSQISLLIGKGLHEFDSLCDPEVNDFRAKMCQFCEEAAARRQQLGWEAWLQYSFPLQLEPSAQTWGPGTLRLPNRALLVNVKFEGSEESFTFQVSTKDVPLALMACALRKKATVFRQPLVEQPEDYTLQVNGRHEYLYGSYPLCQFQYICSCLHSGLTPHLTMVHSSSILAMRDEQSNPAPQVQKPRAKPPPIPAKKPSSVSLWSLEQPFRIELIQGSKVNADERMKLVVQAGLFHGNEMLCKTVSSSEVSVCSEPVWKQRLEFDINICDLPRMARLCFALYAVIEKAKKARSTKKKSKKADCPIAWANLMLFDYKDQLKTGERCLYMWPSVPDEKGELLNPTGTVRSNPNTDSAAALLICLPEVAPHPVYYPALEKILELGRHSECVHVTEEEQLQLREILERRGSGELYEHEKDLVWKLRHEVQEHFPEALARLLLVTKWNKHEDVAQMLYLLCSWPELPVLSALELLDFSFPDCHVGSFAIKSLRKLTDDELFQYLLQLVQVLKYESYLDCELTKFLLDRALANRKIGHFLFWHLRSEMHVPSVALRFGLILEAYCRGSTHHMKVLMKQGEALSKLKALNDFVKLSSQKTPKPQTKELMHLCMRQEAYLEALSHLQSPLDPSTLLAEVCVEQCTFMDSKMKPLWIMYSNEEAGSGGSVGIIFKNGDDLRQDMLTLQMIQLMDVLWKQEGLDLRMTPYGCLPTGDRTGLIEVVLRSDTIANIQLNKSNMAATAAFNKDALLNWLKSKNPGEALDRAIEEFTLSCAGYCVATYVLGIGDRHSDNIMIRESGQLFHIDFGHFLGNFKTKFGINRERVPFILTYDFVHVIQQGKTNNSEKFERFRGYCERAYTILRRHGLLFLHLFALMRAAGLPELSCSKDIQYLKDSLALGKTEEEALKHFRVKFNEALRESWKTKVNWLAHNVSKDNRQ
T4 sequence (P27986 whole entry partner): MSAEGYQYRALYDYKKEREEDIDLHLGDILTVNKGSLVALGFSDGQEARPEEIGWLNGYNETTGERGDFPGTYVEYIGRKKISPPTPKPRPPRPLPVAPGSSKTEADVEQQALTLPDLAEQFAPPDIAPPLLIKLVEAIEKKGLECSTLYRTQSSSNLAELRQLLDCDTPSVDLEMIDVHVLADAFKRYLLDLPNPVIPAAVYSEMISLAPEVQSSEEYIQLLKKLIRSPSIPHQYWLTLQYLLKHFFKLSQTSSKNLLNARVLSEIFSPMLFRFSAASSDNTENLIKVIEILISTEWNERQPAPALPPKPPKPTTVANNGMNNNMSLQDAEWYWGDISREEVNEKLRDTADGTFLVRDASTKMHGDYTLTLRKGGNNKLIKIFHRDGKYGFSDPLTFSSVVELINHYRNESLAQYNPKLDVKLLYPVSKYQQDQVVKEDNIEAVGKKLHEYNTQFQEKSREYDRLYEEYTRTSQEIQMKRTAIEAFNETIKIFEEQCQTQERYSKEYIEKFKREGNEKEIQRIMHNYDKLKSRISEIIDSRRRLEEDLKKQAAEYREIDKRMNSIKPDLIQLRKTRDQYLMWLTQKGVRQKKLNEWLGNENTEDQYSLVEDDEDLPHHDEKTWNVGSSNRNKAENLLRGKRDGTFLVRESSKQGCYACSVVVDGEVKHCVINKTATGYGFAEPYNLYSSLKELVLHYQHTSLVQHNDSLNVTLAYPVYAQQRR

`Fc1ccc(CNc2ncnc3ccc(F)cc23)cc1` [5aa, 6-Fluoro-N-(4-fluorobenzyl)-4-Quinazolinamine]: the remaining activity at 10 µM was 102% in assay [1] (setting [9]); 100% in assay [2] (setting [9]); 126% in assay [3] (setting [9]); 111% in assay [4] (setting [9]); 93% in assay [5] (setting [9]); 97% in assay [6] (setting [9]). In addition, in assay [7] (setting [9]), the remaining activity at 10 µM was determined as 80%.

As to `Fc1ccc(CCNc2ncnc3ccc(F)cc23)cc1` [5as, 6-Fluoro-N-[2-(4-Fluorophenyl)Ethyl]-4-Quinazolinamine], the remaining activity at 10 µM came to 79% in assay [1] (setting [10]); 84% in assay [2] (setting [10]); 108% in assay [3] (setting [10]); 104% in assay [4] (setting [10]); 84% in assay [5] (setting [10]); 90% in assay [6] (setting [10]). The remaining activity at 10 µM was determined as 100% in assay [7] (setting [10]) and 90% in assay [8] (setting [10]).

As for `Fc1ccc2ncnc(NCCc3ccc(Cl)cc3)c2c1` [5at, N-[2-(4-Chlorophenyl)Ethyl]-6-Fluoro-4-Quinazolinamine], the remaining activity at 10 µM came to 83% in assay [1] (setting [11]); 87% in assay [2] (setting [11]); 111% in assay [3] (setting [11]); 97% in assay [4] (setting [11]); 80% in assay [5] (setting [11]); 88% in assay [6] (setting [11]). Moreover, the remaining activity at 10 µM in assay [7] (setting [11]) was 90%; in assay [8] (setting [11]), 100%.

`COc1ccc2ncnc(Nc3cccc(F)c3)c2c1` [5ay, N-(3-Fluorophenyl)-6-Methoxy-4-Quinazolinamine]: the remaining activity at 10 µM was 79% in assay [1] (setting [12]); 90% in assay [2] (setting [12]); 87% in assay [3] (setting [12]); 114% in assay [4] (setting [12]); 96% in assay [5] (setting [12]); 92% in assay [6] (setting [12]). For the same compound, the remaining activity at 10 µM came out at 117% in assay [7] (setting [12]) and 77% in assay [8] (setting [12]).
